Measurements as given in publication PMC12377202, “Design, synthesis, and cytotoxic evaluation of quinazoline-based derivatives as VEGER-2 inhibitors: comparative study against EGFR kinase activity, induction of apoptosis, and molecular docking study” (RSC Advances, 2025).

Assays:
Assay type in all cases: cell-based, human
K-562 = assay: MTT anti-proliferative assay, K-562; details: Homo sapiens, K562; for viability at 0.195 µmol / cytotoxicity at 0.195 µmol: K-562, 0.195 umol; for cytotoxicity at 0.195 µmol / cytotoxicity at 0.391 µmol / cytotoxicity at 0.781 µmol / cytotoxicity at 1.563 µmol / cytotoxicity at 3.125 µmol / cytotoxicity at 6.25 µmol / cytotoxicity at 12.5 µmol / cytotoxicity at 25 µmol: read-out: Toxicity %; for viability at 0.391 µmol / cytotoxicity at 0.391 µmol: K-562, 0.391 umol; for viability at 0.781 µmol / cytotoxicity at 0.781 µmol: K-562, 0.781 umol; for viability at 1.563 µmol / cytotoxicity at 1.563 µmol: K-562, 1.563 umol; for viability at 3.125 µmol / cytotoxicity at 3.125 µmol: K-562, 3.125 umol; for viability at 6.25 µmol / cytotoxicity at 6.25 µmol: K-562, 6.25 umol; for viability at 12.5 µmol / cytotoxicity at 12.5 µmol: K-562, 12.5 umol; for viability at 25 µmol / cytotoxicity at 25 µmol: K-562, 25 umol; for IC50: MTT, K-562, read-out: Cytotoxicity against cancer cells IC50 K-562
IL-6R = IL-6R level in HepG-2 cells; details: for IL-6R ± SE: HepG-2, at IC50 concentrations; for IL-6R ± SE / IL-6 ±SE: control 44.10; for IL-6R protein level: HepG-2, control 44.10%; for IL-6 ±SE: raw data, HepG2
Procedure: (§1) All synthesized compounds were tested at their cytotoxic concentrations in HepG-2 cells for analysis of gene expression levels of apoptotic markers caspase-3, caspase-9, TNF-α, and IL-6 proteins, and only two active compounds were tested for BAX and Bcl-2 proteins.
(§2) through Flow cytometric analysis.
(§3) Pellets were collected again and incubated with
(§4) Total RNA from vehicle-treated
(§5) (Thermo Scientific, USA).
(§6) All experiments were performed in […]

HepG-2 = assay: MTT anti-proliferative assay, HepG-2; details: Homo sapiens, HepG2; for viability at 0.195 µg/mL / cytotoxicity at 0.195 µg/mL: HepG-2, 0.195 ug/ml; for cytotoxicity at 0.195 µg/mL / cytotoxicity at 0.391 µg/mL / cytotoxicity at 0.781 µg/mL / cytotoxicity at 1.563 µg/mL / cytotoxicity at 3.125 µg/mL / cytotoxicity at 6.25 µg/mL / cytotoxicity at 12.5 µg/mL / cytotoxicity at 25 µg/mL: read-out: Toxicity %; for viability at 0.391 µg/mL / cytotoxicity at 0.391 µg/mL: HepG-2, 0.391 ug/ml; for viability at 0.781 µg/mL / cytotoxicity at 0.781 µg/mL: HepG-2, 0.781 ug/ml; for viability at 1.563 µg/mL / cytotoxicity at 1.563 µg/mL: HepG-2, 1.563 ug/ml; for viability at 3.125 µg/mL / cytotoxicity at 3.125 µg/mL: HepG-2, 3.125 ug/ml; for viability at 6.25 µg/mL / cytotoxicity at 6.25 µg/mL: HepG-2, 6.25 ug/ml; for viability at 12.5 µg/mL / cytotoxicity at 12.5 µg/mL: HepG-2, 12.5 ug/ml; for viability at 25 µg/mL / cytotoxicity at 25 µg/mL: HepG-2, 25 ug/ml; for IC50: MTT, HepG-2, read-out: Cytotoxicity against cancer cells IC50 HepG-2
TNF-alpha = TNF-alpha level in HepG-2 cells; details: control 43.48
Procedure: as §1, §2, §3, §4, §5, §6

MCF-7 = assay: MTT anti-proliferative assay, MCF-7; details: Homo sapiens, MCF7; for viability at 0.195 µmol / cytotoxicity at 0.195 µmol: MCF-7, 0.195 umol; for cytotoxicity at 0.195 µmol / cytotoxicity at 0.391 µmol / cytotoxicity at 0.781 µmol / cytotoxicity at 1.563 µmol / cytotoxicity at 3.125 µmol / cytotoxicity at 6.25 µmol / cytotoxicity at 12.5 µmol / cytotoxicity at 25 µmol: read-out: Toxicity %; for viability at 0.391 µmol / cytotoxicity at 0.391 µmol: MCF-7, 0.391 umol; for viability at 0.781 µmol / cytotoxicity at 0.781 µmol: MCF-7, 0.781 umol; for viability at 1.563 µmol / cytotoxicity at 1.563 µmol: MCF-7, 1.563 umol; for viability at 3.125 µmol / cytotoxicity at 3.125 µmol: MCF-7, 3.125 umol; for viability at 6.25 µmol / cytotoxicity at 6.25 µmol: MCF-7, 6.25 umol; for viability at 12.5 µmol / cytotoxicity at 12.5 µmol: MCF-7, 12.5 umol; for viability at 25 µmol / cytotoxicity at 25 µmol: MCF-7, 25 umol; for IC50: MTT, MCF-7, read-out: Cytotoxicity against cancer cells IC50 MCF-7
caspase-3 = assay: Caspase-3 expression level in HepG-2 cells; details: for Caspase-3 ± SE: HepG-2, at IC50 concentrations, control 0.460; for caspase-3 expression level, fold increase: HepG-2, vs control cells
Procedure: as §1, §2, §3, §4, §5, §6

caspase-9 = assay: Caspase-9 expression level in HepG-2 cells; details: for Caspase-9 ± SE: HepG-2, at IC50 concentrations, control 11.01; for caspase-9 expression level, fold increase: HepG-2, vs control cells
Procedure: as §1, §2, §3, §4, §5, §6

O=C(Cn1cnc2cc(Cl)ccc2c1=O)Nc1ccc(Cl)cc1 [8c, 2-(7-Chloro-4-oxoquinazolin-3(4H)-yl)-N-(4-chlorophenyl)acetamide]
viability at 0.195 µmol (K-562): 80.8%
cytotoxicity at 0.195 µmol (K-562): 19.2%
viability at 0.391 µmol (K-562): 60.1%
cytotoxicity at 0.391 µmol (K-562): 39.9%
viability at 0.781 µmol (K-562): 34.4%
cytotoxicity at 0.781 µmol (K-562): 65.6%
viability at 1.563 µmol (K-562): 19.5%
cytotoxicity at 1.563 µmol (K-562): 80.5%
viability at 3.125 µmol (K-562): 13%
cytotoxicity at 3.125 µmol (K-562): 87%
viability at 6.25 µmol (K-562): 9.89%
cytotoxicity at 6.25 µmol (K-562): 90.1%
viability at 12.5 µmol (K-562): 8.25%
cytotoxicity at 12.5 µmol (K-562): 91.7%
viability at 25 µmol (K-562): 6.53%
cytotoxicity at 25 µmol (K-562): 93.5%
IC50 (K-562): 544.4 ± 3.2 nM
IL-6R ± SE (IL-6R): 14.73 ± 1.06 ng/L
IL-6R protein level (IL-6R): 14.73 ng/L
IL-6 ±SE (IL-6R): 16.64 ng/L
viability at 0.195 µg/mL (HepG-2): 89.2%
cytotoxicity at 0.195 µg/mL (HepG-2): 10.8%
viability at 0.391 µg/mL (HepG-2): 65.9%
cytotoxicity at 0.391 µg/mL (HepG-2): 34.1%
viability at 0.781 µg/mL (HepG-2): 47.8%
cytotoxicity at 0.781 µg/mL (HepG-2): 52.2%
viability at 1.563 µg/mL (HepG-2): 29.9%
cytotoxicity at 1.563 µg/mL (HepG-2): 70.1%
viability at 3.125 µg/mL (HepG-2): 15.9%
cytotoxicity at 3.125 µg/mL (HepG-2): 84.1%
viability at 6.25 µg/mL (HepG-2): 11%
cytotoxicity at 6.25 µg/mL (HepG-2): 89%
viability at 12.5 µg/mL (HepG-2): 7.66%
cytotoxicity at 12.5 µg/mL (HepG-2): 92.3%
viability at 25 µg/mL (HepG-2): 6.7%
cytotoxicity at 25 µg/mL (HepG-2): 93.3%
IC50 (HepG-2): 734.4 ± 2.3 nM
TNF-alpha ±SE (TNF-alpha; HepG-2, at IC50 concentrations): 9.13 ± 0.37 ng/L
TNF-alpha ±SE (TNF-alpha; raw data, HepG2): 10.2 ng/L
viability at 0.195 µmol (MCF-7): 46.1%
cytotoxicity at 0.195 µmol (MCF-7): 53.9%
viability at 0.391 µmol (MCF-7): 32.9%
cytotoxicity at 0.391 µmol (MCF-7): 67.1%
viability at 0.781 µmol (MCF-7): 20.3%
cytotoxicity at 0.781 µmol (MCF-7): 79.7%
viability at 1.563 µmol (MCF-7): 13.1%
cytotoxicity at 1.563 µmol (MCF-7): 86.9%
viability at 3.125 µmol (MCF-7): 10.2%
cytotoxicity at 3.125 µmol (MCF-7): 89.8%
viability at 6.25 µmol (MCF-7): 8.44%
cytotoxicity at 6.25 µmol (MCF-7): 91.6%
viability at 12.5 µmol (MCF-7): 8.05%
cytotoxicity at 12.5 µmol (MCF-7): 92%
viability at 25 µmol (MCF-7): 6.64%
cytotoxicity at 25 µmol (MCF-7): 93.4%
IC50 (MCF-7): 188 ± 2.6 nM
Caspase-3 ± SE (caspase-3): 1.25 ± 0.090 ng/mL
Caspase-3 ± SE (caspase-3; listed as R1): 1.25 ng/mL
caspase-3 expression level, fold increase (caspase-3): 2.72 fold
Caspase-9 ± SE (caspase-9): 26.98 ± 1.30 ng/L
Caspase-9 ± SE (caspase-9; listed as R1): 26.98 ng/L
caspase-9 expression level, fold increase (caspase-9): 2.5 fold

O=C(Cn1cnc2cc(Cl)ccc2c1=O)Nc1ccc(F)c(Cl)c1 [8e, N-(3-Chloro-4-fluorophenyl)-2-(7-chloro-4-oxoquinazolin-3(4H)-yl)acetamide]
viability at 0.195 µmol (K-562): 52.8%
cytotoxicity at 0.195 µmol (K-562): 47.2%
viability at 0.391 µmol (K-562): 45.2%
cytotoxicity at 0.391 µmol (K-562): 54.8%
viability at 0.781 µmol (K-562): 31.6%
cytotoxicity at 0.781 µmol (K-562): 68.4%
viability at 1.563 µmol (K-562): 21.1%
cytotoxicity at 1.563 µmol (K-562): 78.9%
viability at 3.125 µmol (K-562): 10.3%
cytotoxicity at 3.125 µmol (K-562): 89.7%
viability at 6.25 µmol (K-562): 8.78%
cytotoxicity at 6.25 µmol (K-562): 91.2%
viability at 12.5 µmol (K-562): 7.43%
cytotoxicity at 12.5 µmol (K-562): 92.6%
viability at 25 µmol (K-562): 5.91%
cytotoxicity at 25 µmol (K-562): 94.1%
IC50 (K-562): 266.4 ± 1.7 nM
IL-6R ± SE (IL-6R): 11.93 ± 0.25 ng/L
IL-6R protein level (IL-6R): 11.93 ng/L
IL-6 ±SE (IL-6R): 28.78 ng/L
viability at 0.195 µg/mL (HepG-2): 93.8%
cytotoxicity at 0.195 µg/mL (HepG-2): 6.15%
viability at 0.391 µg/mL (HepG-2): 75.6%
cytotoxicity at 0.391 µg/mL (HepG-2): 24.4%
viability at 0.781 µg/mL (HepG-2): 62.3%
cytotoxicity at 0.781 µg/mL (HepG-2): 37.7%
viability at 1.563 µg/mL (HepG-2): 47.6%
cytotoxicity at 1.563 µg/mL (HepG-2): 52.4%
viability at 3.125 µg/mL (HepG-2): 23.1%
cytotoxicity at 3.125 µg/mL (HepG-2): 76.9%
viability at 6.25 µg/mL (HepG-2): 11.9%
cytotoxicity at 6.25 µg/mL (HepG-2): 88.1%
viability at 12.5 µg/mL (HepG-2): 9.45%
cytotoxicity at 12.5 µg/mL (HepG-2): 90.5%
viability at 25 µg/mL (HepG-2): 7.22%
cytotoxicity at 25 µg/mL (HepG-2): 92.8%
IC50 (HepG-2): 1436 ± 7.3 nM
TNF-alpha ±SE (TNF-alpha; HepG-2, at IC50 concentrations): 32.07 ± 2.32 ng/L
TNF-alpha ±SE (TNF-alpha; raw data, HepG2): 27.34 ng/L
viability at 0.195 µmol (MCF-7): 81.5%
cytotoxicity at 0.195 µmol (MCF-7): 18.5%
viability at 0.391 µmol (MCF-7): 62.1%
cytotoxicity at 0.391 µmol (MCF-7): 37.9%
viability at 0.781 µmol (MCF-7): 32.7%
cytotoxicity at 0.781 µmol (MCF-7): 67.3%
viability at 1.563 µmol (MCF-7): 19%
cytotoxicity at 1.563 µmol (MCF-7): 81%
viability at 3.125 µmol (MCF-7): 12.8%
cytotoxicity at 3.125 µmol (MCF-7): 87.2%
viability at 6.25 µmol (MCF-7): 9.01%
cytotoxicity at 6.25 µmol (MCF-7): 91%
viability at 12.5 µmol (MCF-7): 7.65%
cytotoxicity at 12.5 µmol (MCF-7): 92.3%
viability at 25 µmol (MCF-7): 6.46%
cytotoxicity at 25 µmol (MCF-7): 93.5%
IC50 (MCF-7): 552.3 ± 1.7 nM
Caspase-3 ± SE (caspase-3): 1.54 ± 0.11 ng/mL
Caspase-3 ± SE (caspase-3; listed as R5): 1.54 ng/mL
caspase-3 expression level, fold increase (caspase-3): 3.35 fold
Caspase-9 ± SE (caspase-9): 48.44 ± 1.24 ng/L
Caspase-9 ± SE (caspase-9; listed as R5): 48.44 ng/L
caspase-9 expression level, fold increase (caspase-9): 4.4 fold
